Read-outs that look alike come from different tables or passages of the source.
Biological target: T1, human Polq polymerase domain (Homo sapiens, UniProt O75417)
T1 sequence (O75417 1792-2590): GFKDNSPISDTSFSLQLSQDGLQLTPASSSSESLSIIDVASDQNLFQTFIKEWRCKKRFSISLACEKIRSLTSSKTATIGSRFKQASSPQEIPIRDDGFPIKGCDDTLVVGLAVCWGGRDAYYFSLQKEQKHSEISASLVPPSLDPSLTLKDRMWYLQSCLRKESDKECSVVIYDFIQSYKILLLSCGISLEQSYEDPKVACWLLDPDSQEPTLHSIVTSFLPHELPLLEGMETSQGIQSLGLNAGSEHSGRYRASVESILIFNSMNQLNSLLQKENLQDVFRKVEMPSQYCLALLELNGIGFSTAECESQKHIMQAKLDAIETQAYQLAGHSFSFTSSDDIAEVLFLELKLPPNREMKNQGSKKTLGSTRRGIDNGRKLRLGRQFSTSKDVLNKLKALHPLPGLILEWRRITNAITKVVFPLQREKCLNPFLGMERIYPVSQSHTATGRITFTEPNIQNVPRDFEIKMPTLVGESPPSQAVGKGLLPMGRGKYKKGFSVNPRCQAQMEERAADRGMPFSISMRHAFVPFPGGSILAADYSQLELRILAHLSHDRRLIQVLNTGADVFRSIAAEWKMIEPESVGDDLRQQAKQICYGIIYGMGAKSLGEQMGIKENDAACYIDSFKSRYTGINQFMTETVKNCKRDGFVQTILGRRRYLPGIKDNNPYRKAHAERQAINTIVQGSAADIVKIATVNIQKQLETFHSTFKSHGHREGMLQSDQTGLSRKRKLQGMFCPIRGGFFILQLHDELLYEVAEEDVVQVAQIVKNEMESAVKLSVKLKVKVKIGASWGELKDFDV
Test: Cy5 fluorescence assay of Polq polymerase domain inhibition
Assay type: biochemical
Method: The following Cy5 fluorescence assay was used to measure the ability of compounds to inhibit Polq polymerase domain in vitro. The fluorescent based assay was performed as follows: 60 nM of the pre-annealed primer-template containing a 5′ Cy5 fluorophore conjugated template strand (SEQ ID NO:3: 5′-/5Cy5/[…]-3′), a downstream complementary oligo conjugated with a 3′ Blackhole quencher (SEQ ID NO:4: 5′-CTAAGCTCACAGTG/3IAbRQSp/-3′) and a primer strand (SEQ ID NO:5: 5′-CTGTCCTGCATGATG-3′) was mixed with 50 uM 2′-deoxyribonucleoside triphosphates (dNTPs), 0.1 mg/mL Bovine serum albumin (BSA), 0.01% NP-40, 10% glycerol, 1 mM dithiothreitol (DTT), 10 mM MgCl2, 25 mM TrisHCl pH 7.8 in the presence of 2.5% DMSO with or without various concentrations (7-point dilution series) of Polq small molecule inhibitors represented by Formula I at 37 °C in a volume of 40 μL.

[1] = 5 nM Polq polymerase domain (residues 1792-2590), 60 nM primer-template, 50 uM dNTPs, 37 °C, 18 min, read-out: IC50 (nM) Polq

Compound	IC50 [1]	IC50
CNCC(O)CN1CCN(c2cc(C(F)(F)F)cc(C(F)(F)F)c2OC(=O)N(C)c2ccc(F)cc2)C1=O (stereo not shown) [Example 48, 2-(3-(2-hydroxy-3-(methylamino)propyl)-2-oxoimidazolidin-1-yl)-4,6-bis(trifluoromethyl)phenyl (4-fluorophenyl)(methyl)carbamate]	5.1 nM	
CN1CCN(c2cc(C(F)(F)F)cc(C(F)(F)F)c2OC(=O)N(C)c2ccc(F)cc2)C1=O [Example 5, 2,4-bis(trifluoromethyl)-6-(3-methyl-2-oxoimidazolidin-1-yl)phenyl (4-fluorophenyl)(methyl)carbamate]	6 nM	
[2H]C([2H])([2H])N(C(=O)Oc1c(N2CCN(CCn3cnnc3)C2=O)cc(C(F)(F)F)cc1C(F)(F)F)c1ccc(F)cc1 [Example 43, 2-(3-(2-(4H-1,2,4-triazol-4-yl)ethyl)-2-oxoimidazolidin-1-yl)-4,6-bis(trifluoromethyl)phenyl (4-fluorophenyl)(methyl-d3)carbamate]		5.4 nM
CN(C(=O)Oc1c(N2CCNC2=O)cc(C(F)(F)F)cc1C(F)(F)F)c1cc(Cl)c(F)cc1F [Example 9, 2,4-bis(trifluoromethyl)-6-(2-oxoimidazolidin-1-yl)phenyl (5-chloro-2,4-difluorophenyl)(methyl)carbamate]		21 nM
CN(C(=O)Oc1c(N2CCN(CC3(O)CNC3)C2=O)cc(C(F)(F)F)cc1C(F)(F)F)c1ccc(F)c(Cl)c1F [Example 38, 2,4-bis(trifluoromethyl)-6-(3-((3-hydroxyazetidin-3-yl)methyl)-2-oxoimidazolidin-1-yl)phenyl (3-chloro-2,4-difluorophenyl)(methyl)carbamate]		7.8 nM
CN1C(=O)CN(c2cc(C(F)(F)F)cc(C(F)(F)F)c2OC(=O)N(C)c2ccc(F)cc2)C1=O [Example 27, 2-(3-methyl-2,4-dioxoimidazolidin-1-yl)-4,6-bis(trifluoromethyl)phenyl N-(4-fluorophenyl)-N-methylcarbamate]		24 nM
CN(C(=O)Oc1c(N2CCN(CCO)C2=O)cc(Cl)cc1C(F)(F)F)c1ccc(F)cc1 [Example 54, 4-chloro-2-(3-(2-hydroxyethyl)-2-oxoimidazolidin-1-yl)-6-(trifluoromethyl)phenyl (4-fluorophenyl)(methyl)carbamate]		68 nM
CN(C(=O)Oc1c(N2CCN(CCN3CCC(C#N)CC3)C2=O)cc(C(F)(F)F)cc1C(F)(F)F)c1ccc(F)cc1 [Example 3, 2-(3-(2-(4-cyanopiperidin-1-yl)ethyl)-2-oxoimidazolidin-1-yl)-4,6-bis(trifluoromethyl)phenyl (4-fluorophenyl)(methyl)carbamate]		6 nM
CN(C(=O)Oc1c(N2CCNC2=O)cc(C(F)(F)F)cc1C(F)(F)F)c1ccccc1CC#N [Example 33, 2,4-bis(trifluoromethyl)-6-(2-oxoimidazolidin-1-yl)phenyl 2-(cyanomethyl)phenylmethylcarbamate]	590 nM	
O=C1NCCN1c1cc(C(F)(F)F)cc(C(F)(F)F)c1OC(=O)N(c1ccc(F)cc1)C1CC1 [Example 31, 2,4-bis(trifluoromethyl)-6-(2-oxoimidazolidin-1-yl)phenyl cyclopropyl4-fluorophenylcarbamate]	31 nM	
[2H]C([2H])([2H])N(C(=O)Oc1c(N2CCN(CC(O)CNC)C2=O)cc(C(F)(F)F)cc1C(F)(F)F)c1ccc(F)c(Cl)c1F (stereo not shown) [Example 44, 2-(3-(2-hydroxy-3-(methylamino)propyl)-2-oxoimidazolidin-1-yl)-4,6-bis(trifluoromethyl)phenyl (3-chloro-2,4-difluorophenyl)(methyl-d3)carbamate]		7 nM
CC(O)CN1CCN(c2cc(C(F)(F)F)cc(C(F)(F)F)c2OC(=O)N(C)c2ccc(F)cc2)C1=O (stereo not shown) [Example 20, 2,4-bis(trifluoromethyl)-6-(3-(2-hydroxypropyl)-2-oxoimidazolidin-1-yl)phenyl 4-fluorophenylmethylcarbamate]	2.4 nM	
CN(C(=O)Cc1c(N2CCNC2=O)cc(C(F)(F)F)cc1C(F)(F)F)c1ccc(F)cc1 [Example 51, N-(4-fluorophenyl)-N-methyl-2-(2-(2-oxoimidazolidin-1-yl)-4,6-bis(trifluoromethyl)phenyl)acetamide]	117 nM	
CN(C(=O)Oc1c(N2CCNC2=O)cc(C(F)(F)F)cc1C(F)(F)F)c1ccc(F)cc1 [Example 4, 2,4-bis(trifluoromethyl)-6-(2-oxoimidazolidin-1-yl)phenyl (4-fluorophenyl)(methyl)carbamate]		3.4 nM
CN(C(=O)Oc1c(N2CCCC2=O)cc(C(F)(F)F)cc1C(F)(F)F)c1ccc(F)cc1 [Example 10, 2,4-bis(trifluoromethyl)-6-(2-oxopyrrolidin-1-yl)phenyl (4-fluorophenyl)(methyl)carbamate]		21 nM
[2H]C([2H])([2H])N(C(=O)Oc1c(N2CCN(CCn3ccnc3)C2=O)cc(C(F)(F)F)cc1C(F)(F)F)c1ccc(F)cc1 [Example 42, 2-(3-(2-(1H-imidazol-1-yl)ethyl)-2-oxoimidazolidin-1-yl)-4,6-bis(trifluoromethyl)phenyl (4-fluorophenyl)(methyl-d3)carbamate]		11.7 nM
[2H]C([2H])([2H])N(C(=O)Oc1c(N2CCN(CC3(O)CNC3)C2=O)cc(C(F)(F)F)cc1C(F)(F)F)c1ccc(F)c(Cl)c1F [Example 37, 2-(3-((3-hydroxyazetidin-3-yl)methyl)-2-oxoimidazolidin-1-yl)-4,6-bis(trifluoromethyl)phenyl (3-chloro-2,4-difluorophenyl)(methyl-d3)carbamate]		2.7 nM
CN(C(=O)Oc1c(N2CCN(CCOC(F)F)C2=O)cc(C(F)(F)F)cc1C(F)(F)F)c1ccc(F)cc1 [Example 32, 2-(3-(2-(difluoromethoxy)ethyl)-2-oxoimidazolidin-1-yl)-4,6-bis(trifluoromethyl)phenyl N-(4-fluorophenyl)-N-methylcarbamate]		2.3 nM
Cc1cc(C(F)(F)F)cc(N2C[C@H](O)CC2=O)c1OC(=O)N(C)c1ccc(F)cc1 [Example 12, (R)-2-(4-hydroxy-2-oxopyrrolidin-1-yl)-6-methyl-4-(trifluoromethyl)phenyl (4-fluorophenyl)(methyl)carbamate]		4.4 nM
Cc1cc(C(F)(F)F)cc(N2CCNC2=O)c1OC(=O)N(C)c1ccc(F)c(Cl)c1 [Example 14, 2-methyl-6-(2-oxoimidazolidin-1-yl)-4-(trifluoromethyl)phenyl (3-chloro-4-fluorophenyl)(methyl)carbamate]		45 nM
[2H]C([2H])([2H])N(C(=O)Oc1c(N2CCN(C[C@H](O)CN(C)C)C2=O)cc(C(F)(F)F)cc1C(F)(F)F)c1ccc(F)cc1 [Example 50, (R)-2-(3-(3-(dimethylamino)-2-hydroxypropyl)-2-oxoimidazolidin-1-yl)-4,6-bis(trifluoromethyl)phenyl (4-fluorophenyl)(methyl-d3)carbamate]	5.1 nM	
CN(C(=O)Oc1c(N2CCN(C3CC(O)C3)C2=O)cc(C(F)(F)F)cc1C(F)(F)F)c1ccc(F)cc1 (stereo not shown) [Example 34, 2-(3-(3-hydroxycyclobutyl)-2-oxoimidazolidin-1-yl)-4,6-bis(trifluoromethyl)phenyl (4-Fluorophenyl)(methyl)carbamate]		2 nM
CN(C(=O)Oc1c(Cl)cc(Cl)cc1N1CCN(CCO)C1=O)c1ccc(F)cc1 [Example 55, 2,4-dichloro-6-(3-(2-hydroxyethyl)-2-oxoimidazolidin-1-yl)phenyl (4-fluorophenyl)(methyl)carbamate]		133 nM
[2H]C([2H])([2H])N(C(=O)Oc1c(N2CCN(C[C@@H](O)CN(C)C)C2=O)cc(C(F)(F)F)cc1C(F)(F)F)c1ccc(F)cc1 [Example 49, (S)-2-(3-(3-(dimethylamino)-2-hydroxypropyl)-2-oxoimidazolidin-1-yl)-4,6-bis(trifluoromethyl)phenyl (4-fluorophenyl)(methyl-d3)carbamate]	7.5 nM	
[2H]C([2H])([2H])N(C(=O)Oc1c(N2CCN(CC(O)CN(C)C)C2=O)cc(C(F)(F)F)cc1C(F)(F)F)c1ccc(F)cc1 (stereo not shown) [Example 46, 2-(3-(3-(dimethylamino)-2-hydroxypropyl)-2-oxoimidazolidin-1-yl)-4,6-bis(trifluoromethyl)phenyl (4-fluorophenyl)(methyl-d3)carbamate]	5.5 nM	

Reference: patent publication US20260356820A1, “Pyrrolidine and Imidazolidine Based DNA Polymerase Theta Inhibitors and Use Thereof” (Thomas Jefferson University, priority 2022, published 2026)
